Where two headings read alike, the source gives them in different places. *1 amine or outer side, *2 acyl side, *3 side chain or, on linkers, in order; H or OH if unused. Where a SMILES comes first, the peptide text is derived from it. Bridges are numbered along the chain shown (N, C = ends). [ ]: non-standard residue; d: D form. The star is where a group is joined. hPhe(3-Cl-4-CF3) = N[C@@H](CCc1ccc(C(F)(F)F)c(Cl)c1)C(=O)O; X5 = C=CCN([C@@H](Cc1ccc(C(F)(F)F)cc1)C(=O)[*:2])[*:1]; NPrPhe(4-CF3) = CCCN[C@@H](Cc1ccc(C(F)(F)F)cc1)C(=O)O; NEtPhe(4-Me) = CCN[C@@H](Cc1ccc(C)cc1)C(=O)O; X3 = CCCN([C@H](C(=O)[*:2])C1CCCC1)[*:1]; NMeGly(cPent) = CN[C@H](C(=O)O)C1CCCC1; Hyp = O=C(O)[C@@H]1C[C@@H](O)CN1; NMeD = CN[C@@H](CC(=O)O)C(=O)O; NMeL = CN[C@@H](CC(C)C)C(=O)O; Morpholide = C1CN(*)CCO1; NMeA = CN[C@@H](C)C(=O)O; Pyrrolidide = C1CCN(*)C1; Ac5c = NC1(C(=O)O)CCCC1; Aze = O=C(O)[C@@H]1CCN1; Sar = CNCC(=O)O
What was measured:
[1] = tested on: human lung cancer strain NCI-H441;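 note: cell proliferation inhibition after four days measured by CellTiter-Glo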
[2] = target: GDP-bound KRAS wild-type protein (Homo sapiens, UniProt P01116); assay: Binding to KRAS by surface plasmon resonance (SPR), Single Cycle Kinetics
[3] = target: GDP-bound HRAS wild-type protein (Homo sapiens, UniProt P01112); assay: Binding to HRAS by surface plasmon resonance (SPR), Single Cycle Kinetics; conditions: for HRAS/KRAS (ratio of KD value for HRAS to KD value for KRAS): GDP-bound HRAS wild-type protein vs GDP-bound KRAS wild-type protein; for HRAS/KRAS (ratio of KD value with respect to GDP-bound HRAS wild-type protein to KD value with respect to KRAS): SPR KD ratio HRAS/KRAS, class symbols
[4] = target: GDP-bound NRAS wild-type protein (Homo sapiens, UniProt P01111); assay: Binding to NRAS by surface plasmon resonance (SPR), Single Cycle Kinetics; conditions: for NRAS/KRAS (ratio of KD value for NRAS to KD value for KRAS): SPR, GDP-bound NRAS wild-type protein vs GDP-bound KRAS wild-type protein; for NRAS/KRAS (ratio of KD value with respect to GDP-bound NRAS wild-type protein to KD value with respect to KRAS): SPR KD ratio NRAS/KRAS, class symbols
[5] = SPR, Single Cycle Kinetics, GDP-bound KRAS wild-type protein, read-out: KRAS KD
[6] = SPR Single Cycle Kinetics, GDP-bound KRAS wild-type protein, 1:1 binding model, read-out: KRAS KD

GDP-bound NRAS wild-type protein, sequence (P01111 whole entry): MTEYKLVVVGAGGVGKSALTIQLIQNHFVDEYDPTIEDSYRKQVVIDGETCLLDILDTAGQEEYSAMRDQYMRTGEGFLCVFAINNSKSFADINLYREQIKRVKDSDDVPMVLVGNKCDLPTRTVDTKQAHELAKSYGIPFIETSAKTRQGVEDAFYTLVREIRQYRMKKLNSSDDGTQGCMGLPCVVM
GDP-bound HRAS wild-type protein, sequence (P01112 whole entry): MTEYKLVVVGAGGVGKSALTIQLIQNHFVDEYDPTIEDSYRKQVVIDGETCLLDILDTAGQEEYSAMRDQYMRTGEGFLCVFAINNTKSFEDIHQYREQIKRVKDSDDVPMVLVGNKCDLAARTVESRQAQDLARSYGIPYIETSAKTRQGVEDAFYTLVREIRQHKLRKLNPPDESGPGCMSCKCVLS
GDP-bound KRAS wild-type protein, sequence (P01116 whole entry): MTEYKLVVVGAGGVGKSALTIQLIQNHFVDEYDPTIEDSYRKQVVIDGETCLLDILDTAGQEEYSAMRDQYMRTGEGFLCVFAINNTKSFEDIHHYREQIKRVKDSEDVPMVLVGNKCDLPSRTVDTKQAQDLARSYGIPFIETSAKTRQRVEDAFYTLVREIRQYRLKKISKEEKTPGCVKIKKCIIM

| Structure (SMILES) | IC50 [1] | HRAS/KRAS (ratio of KD value for HRAS to KD value for KRAS) ([3]; SPR) | NRAS/KRAS (ratio of KD value for NRAS to KD value for KRAS) [4] | Kd [2, 6] | other results |
| --- | --- | --- | --- | --- | --- |
| CC[C@H](C)[C@@H]1NC(=O)[C@H](CC(C)C)N(C)C(=O)C[C@@H](C(=O)N2CCOCC2)N(C)C(=O)[C@H](C2CCCC2)N(C)C(=O)C2(CCC2)NC(=O)[C@@H]2CCCN2C(=O)[C@H](CCc2ccc(C(F)(F)F)c(Cl)c2)NC(=O)CN(C)C(=O)[C@H](Cc2ccc(C(F)(F)F)cc2)N2C[C@H](C)CC[C@@H](C2=O)N(C)C(=O)[C@@H]2CCN2C1=O (stereo in doubt) [PP1339] | 42.1 nM |  |  |  | Kd ([2]; SPR, Single Cycle Kinetics, 1:1 binding model, GDP-bound KRAS wild-type protein, read-out: KRAS KD): 6.5e-10 M; HRAS/KRAS (ratio of KD value for HRAS to KD value for KRAS) ([3]; SPR, KD ratio class): B (a compound having 3 or more and less than 10 is denoted as B); NRAS/KRAS (ratio of KD value for NRAS to KD value for KRAS) ([4]; KD ratio class): A (a compound having 10 or more and less than 20 is denoted as A) |
| CCC(CC)[C@H]1C(=O)N(C)[C@H](C(=O)N(C)C)CC(=O)N(C)[C@@H](COC)C(=O)N[C@@H]([C@@H](C)CC)C(=O)N(C2CC2)CC(=O)N(C)[C@H]2C/C=C\CCN(C2=O)[C@@H](Cc2ccc(C)cc2)C(=O)N(C)CC(=O)N[C@@H](CCc2ccc(Cl)c(Cl)c2)C(=O)N2C[C@H](OC(C)C)C[C@H]2C(=O)NC2(CC(C)(C)C2)C(=O)N1C (stereo in doubt) [PP2509] | 91.3 nM | A (a compound having 10 or more and less than 20 is denoted as A) | AA (a compound having 20 or more is denoted as AA) |  | Kd [2, 5]: 2.6e-09 M |
| CCC[C@H]1C(=O)N[C@H]([C@@H](C)CC)C(=O)N2C[C@@H](OC)C[C@H]2C(=O)N(C)[C@H]2C/C=C\CCN(C2=O)[C@@H](Cc2ccc(C)cc2)C(=O)N(C)CC(=O)N[C@@H](CCc2ccc(C(F)(F)F)c(Cl)c2)C(=O)N2C[C@H](OCC)C[C@H]2C(=O)NC2(CCC2)C(=O)N(C)[C@@H](C2CCCC2)C(=O)N(C)[C@H](C(=O)N(C)C)CC(=O)N1C (stereo in doubt) [PP2552] | 30.5 nM |  |  | 2.8e-10 M | HRAS/KRAS (ratio of KD value with respect to GDP-bound HRAS wild-type protein to KD value with respect to KRAS) [3]: B (a compound having 3 or more and less than 10 is denoted as B); NRAS/KRAS (ratio of KD value with respect to GDP-bound NRAS wild-type protein to KD value with respect to KRAS) [4]: A (a compound having 10 or more and less than 20 is denoted as A) |
| CCOC[C@H]1C(=O)N[C@@H]([C@@H](C)CC)C(=O)N(C2CC2)CC(=O)N(C)[C@@H]2C/C=C\CCN(C2=O)[C@@H](Cc2ccc(C)cc2)C(=O)N(C)CC(=O)N[C@@H](CCc2ccc(C(F)(F)F)c(OC)c2)C(=O)N2C[C@H](OCC)C[C@@H]2C(=O)NC2(CC(C)(C)C2)C(=O)N(C)[C@H](CC2CCC2)C(=O)N(C)[C@H](C(=O)N(C)C)CC(=O)N1C (stereo in doubt) [PP2760] | 144 nM |  |  | 4.8e-09 M | HRAS/KRAS (ratio of KD value with respect to GDP-bound HRAS wild-type protein to KD value with respect to KRAS) [3]: B (a compound having 3 or more and less than 10 is denoted as B); NRAS/KRAS (ratio of KD value with respect to GDP-bound NRAS wild-type protein to KD value with respect to KRAS) [4]: A (a compound having 10 or more and less than 20 is denoted as A) |
| CC[C@H](C)[C@@H]1NC(=O)[C@H](CC(C)C)N(C)C(=O)C[C@@H](C(=O)N2CCOCC2)N(C)C(=O)[C@H](C2CCCC2)N(C)C(=O)C2(CCCC2)NC(=O)[C@@H]2C[C@@H](O)CN2C(=O)[C@H](CCc2ccc(C(F)(F)F)c(Cl)c2)NC(=O)CN(C)C(=O)[C@H](Cc2ccc(C)cc2)N(CC)C(=O)CN(C)C(=O)CN(C)C1=O [PP0041] ([NMeL]I[Sar][Sar][NEtPhe(4-Me)][Sar][hPhe(3-Cl-4-CF3)][Hyp][Ac5c][NMeGly(cPent)][NMeD]-Morpholide; lactam N-11) | 62.7 nM | C (A compound having a KD ratio of 0.1 or more and less than 3 is denoted as C) | B (a compound having 3 or more and less than 10 is denoted as B) | 1.2e-10 M |  |
| CCCN1C(=O)[C@@H]2CCN2C(=O)[C@H](C)N(C)C(=O)[C@H]([C@@H](C)CC)NC(=O)[C@H](CC(C)C)N(C)C(=O)C[C@@H](C(=O)N2CCOCC2)N(C)C(=O)[C@H](C2CCCC2)N(C)C(=O)C2(CCCC2)NC(=O)[C@@H]2CCCN2C(=O)[C@H](CCc2ccc(C(F)(F)F)c(Cl)c2)NC(=O)CN(C)C(=O)[C@@H]1C1CCCC1 [PP0054] ([NMeL]I[NMeA][Aze][X3][Sar][hPhe(3-Cl-4-CF3)]P[Ac5c][NMeGly(cPent)][NMeD]-Morpholide; lactam N-11) | 82 nM | C (A compound having a KD ratio of 0.1 or more and less than 3 is denoted as C) | C (A compound having a KD ratio of 0.1 or more and less than 3 is denoted as C) |  | Kd ([2]; KRAS KD (M), SPR Single Cycle Kinetics, GDP-bound KRAS wild-type protein, 1:1 binding model): 4.5e-09 M |
| CCCN1C(=O)[C@@H]2CCN2C(=O)[C@H](C)NC(=O)[C@H]([C@@H](C)CC)NC(=O)[C@H](CC(C)C)N(C)C(=O)C[C@@H](C(=O)N2CCOCC2)N(C)C(=O)[C@H](C2CCCC2)N(C)C(=O)C2(CCCC2)NC(=O)[C@@H]2CCCN2C(=O)[C@H](CCc2ccc(C(F)(F)F)c(Cl)c2)NC(=O)CN(C)C(=O)[C@@H]1Cc1ccc(C(F)(F)F)cc1 [PP0078] ([NMeL]IA[Aze][NPrPhe(4-CF3)][Sar][hPhe(3-Cl-4-CF3)]P[Ac5c][NMeGly(cPent)][NMeD]-Morpholide; lactam N-11) | 4.8 nM | B (a compound having 3 or more and less than 10 is denoted as B) | C (A compound having a KD ratio of 0.1 or more and less than 3 is denoted as C) | 1.9e-10 M |  |
| C=CCN1C(=O)CN(C)C(=O)CN(C)C(=O)[C@H]([C@@H](C)CC)NC(=O)[C@H](CC(C)C)N(C)C(=O)C[C@@H](C(=O)N2CCOCC2)N(C)C(=O)[C@H](C2CCCC2)N(C)C(=O)C2(CCCC2)NC(=O)[C@@H]2CCCN2C(=O)[C@H](CCc2ccc(C(F)(F)F)c(Cl)c2)NC(=O)CN(C)C(=O)[C@@H]1Cc1ccc(C(F)(F)F)cc1 [PP0128] ([NMeL]I[Sar][Sar][X5][Sar][hPhe(3-Cl-4-CF3)]P[Ac5c][NMeGly(cPent)][NMeD]-Morpholide; lactam N-11) | 10.4 nM | C (A compound having a KD ratio of 0.1 or more and less than 3 is denoted as C) | C (A compound having a KD ratio of 0.1 or more and less than 3 is denoted as C) | 2.5e-10 M |  |
| CCCN1C(=O)CN(C)C(=O)CN(C)C(=O)[C@H]([C@@H](C)CC)NC(=O)[C@H](CC(C)C)N(C)C(=O)C[C@@H](C(=O)N2CCCC2)N(C)C(=O)[C@H](C2CCCC2)N(C)C(=O)C2(CCCC2)NC(=O)[C@@H]2CCCN2C(=O)[C@H](CCc2ccc(C(F)(F)F)c(Cl)c2)NC(=O)CN(C)C(=O)[C@@H]1Cc1ccc(C(F)(F)F)cc1 [PP0170] ([NMeL]I[Sar][Sar][NPrPhe(4-CF3)][Sar][hPhe(3-Cl-4-CF3)]P[Ac5c][NMeGly(cPent)][NMeD]-Pyrrolidide; lactam N-11) | 5.2 nM | B (a compound having 3 or more and less than 10 is denoted as B) | B (a compound having 3 or more and less than 10 is denoted as B) | 1.2e-10 M |  |
| CCC[C@H]1C(=O)N[C@@H]([C@@H](C)CC)C(=O)N(C)CC(=O)N(C)[C@H]2C/C=C\CCN(C2=O)[C@@H](Cc2ccc(C(F)(F)F)cc2)C(=O)N(C)CC(=O)N[C@@H](CCc2ccc(C(F)(F)F)c(OC)c2)C(=O)N2C[C@H](OCC)C[C@H]2C(=O)N(C)C2(CCC2)C(=O)N(C)[C@@H](C2CCCC2)C(=O)N(C)[C@H](C(=O)N2CCCCC2)CC(=O)N1C [PP3103, (2S,8S,12R,14S,20S,23S,27S,30S,36S,38Z)-20-cyclopentyl-12-ethoxy-8-[2-[3-methoxy-4-(trifluoromethyl)phenyl]ethyl]-4,16,19,22,26,32,35-heptamethyl-30-[(1S)-1-methylpropyl]-23-(piperidine-1-carbonyl)-27-propyl-2-[[4-(trifluoromethyl)phenyl]methyl]spiro[1,4,7,10,16,19,22,26,29,32,35-undecazatricyclo[34.5.1.0^10,14]dotetracont-38-ene-17,1′-cyclobutane]-3,6,9,15,18,21,25,28,31,34,42-undecone] |  | A (a compound having 10 or more and less than 20 is denoted as A) |  |  | IC50 ([1]; read-out: NCI-H441 cell proliferation inhibitory activity, 50% proliferation inhibitory concentration (IC50 value), NCI-H441, four days, CellTiter-Glo): 21.5 nM; Kd ([2]; SPR, Single Cycle Kinetics, 1:1 binding model, read-out: KD value with respect to GDP-bound KRAS wild-type protein): 2.1e-10 M; Kd [2, 5]: 2.1e-10 M; ratio of the KD value with respect to GDP-bound HRAS wild-type protein to the KD value with respect to KRAS ([3]; SPR, KD(HRAS)/KD(KRAS)): A (a compound having 10 or more and less than 20 is denoted as A) |

From patent US20240158446A1, “CYCLIC COMPOUND HAVING SELECTIVE INHIBITORY ACTION ON KRAS OVER HRAS AND NRAS” (CHUGAI SEIYAKU KABUSHIKI KAISHA, priority 2021, published 2024)
